Consider 15 compounds from article PMC11020070, “Discovery of Protease-Activated Receptor 4 (PAR4)-Tethered Ligand Antagonists Using Ultralarge Virtual Screening” (ACS Pharmacology & Translational Science, 2024).

Where two headings read alike, the source gives them in different places.

One experiment has as its target T1, PAR4 (Homo sapiens, UniProt Q96RI0).
T1 sequence (Q96RI0 18-385): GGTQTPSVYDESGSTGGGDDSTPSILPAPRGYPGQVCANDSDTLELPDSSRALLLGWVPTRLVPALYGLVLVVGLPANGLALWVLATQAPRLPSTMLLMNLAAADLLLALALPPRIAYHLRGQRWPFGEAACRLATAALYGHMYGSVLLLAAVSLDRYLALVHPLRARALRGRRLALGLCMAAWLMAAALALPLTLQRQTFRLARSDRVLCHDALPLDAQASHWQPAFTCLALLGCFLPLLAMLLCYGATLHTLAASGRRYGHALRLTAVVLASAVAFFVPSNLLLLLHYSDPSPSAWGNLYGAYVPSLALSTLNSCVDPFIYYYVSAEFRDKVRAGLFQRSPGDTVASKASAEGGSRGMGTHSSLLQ
Put plainly: Human platelet activity assay, flow cytometry, γ-thrombin activation. Format: cell-based. Details: endogenous in cells; host or cells: washed human platelets from healthy volunteers. The note with it: human platelets, 100 nM γ-thrombin. The protocol:
To test the antagonistic effect of the compounds on PAR4, a flow cytometry assay of human platelets was employed. Each compound was screened at 10 μM in human platelets using flow cytometry for GPIIbIIIa activation (PAC1) and P-selectin (CD62p) expression as previously described.[4] Activation of GPIIbIIIa allows interaction with divalent fibrinogen or multivalent von Willebrand factor, leading to platelet aggregation.[41] PAR4 stimulation also triggers α-granule secretion containing P-selectin.[5] […] Platelets were treated with each test compound or vehicle control DMSO before activating with γ-thrombin (100 nM) or PAR4 agonist peptide mimetic (200 μM, “PAR4-AP” AYPGKF) for 30 min. γ-thrombin activates PAR4 but not PAR1.[42]
Activation of washed human platelets was monitored by flow cytometry for the detection of PAC1 (GPIIbIIIa activation) and CD62p (P-selectin expression) binding as previously described.[4] Human platelets were obtained from healthy volunteers. The Vanderbilt University Internal Review Board approved these studies. Informed consent was obtained from all individuals prior to the blood draw. 10 mL of whole blood was collected into 0.32% Na citrate. Platelet-rich plasma was collected after room-temperature centrifugation at 1100 rpm for 15 min on a Thermo Forma 400 centrifuge (Thermo Fisher, Waltham, MA). 1/10 volume of acid citrate dextrose (ACD) buffer was added to the collected supernatant and incubated for 10 min. After centrifugation at 2400 rpm for 10 min, the platelet pellet was resuspended in 1 mL Tyrode’s buffer (“TBB”: 15 mM HEPES, 0.33 mM NaH2PO4, pH 6.4, 138 mM NaCl, 2.7 mM KCl, 1 mM MgCl2, 5.5 mM dextrose, 0.1% bovine serum albumin). Platelets were collected, counted on a Z1 Coulter Particle Counter (Beckman Coulter, Brea, CA), and diluted in TBB to 1.5 × 10^7 platelets/mL. 60 uL of platelets were aliquoted to each tube and preincubated with 40 μL of TBB with antibodies PAC1 FITC (Becton Dickinson, Franklin Lakes NJ) and P-selectin PE (Becton Dickinson) and either test compound antagonist or DMSO vehicle control for 20 min. Platelets were then activated with 100 nM γ-thrombin or other agonists for 30 min. Samples were then fixed by adding 100 μL of 2% paraformaldehyde. After 30 min, samples were diluted by adding 300 μL of phosphate-buffered saline (PBS) and stored at 4C. Data were collected on a three-laser BD LSRFortessa (Becton Dickinson) and analyzed with FlowJo software (FlowJo LLC, Ashland, OR). The mean fluorescence intensity (geometric) of PE and FITC was determined from 30,000 events after compensation correction. Data were normalized to vehicle (DMSO) controls.
Compounds were screened for inhibition activity against human PAR4 using 100 nM γ-thrombin or 200 μM PAR4-AP in a single-point assay (10 μM test compound).
In general terms: Flow cytometry measures light scatter and fluorescence of single cells or particles in a stream.

Another experiment has as its target T2, mouse PAR4 (Mus musculus, UniProt O88634).
T2 construct: washed mouse platelets were prepared by collecting cardiac puncture blood; endogenous in cells; host or cells: washed mouse platelets (cardiac puncture blood)
T2 sequence (O88634 17-396): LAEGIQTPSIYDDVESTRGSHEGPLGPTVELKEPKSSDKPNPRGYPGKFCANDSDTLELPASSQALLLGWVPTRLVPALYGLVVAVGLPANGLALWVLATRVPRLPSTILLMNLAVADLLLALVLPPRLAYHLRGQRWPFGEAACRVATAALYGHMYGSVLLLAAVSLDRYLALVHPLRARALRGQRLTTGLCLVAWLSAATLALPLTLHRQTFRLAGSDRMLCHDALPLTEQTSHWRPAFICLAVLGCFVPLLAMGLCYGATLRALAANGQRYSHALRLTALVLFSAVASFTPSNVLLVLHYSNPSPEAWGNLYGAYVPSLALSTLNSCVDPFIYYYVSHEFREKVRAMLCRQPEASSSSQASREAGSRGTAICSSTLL
The experiment is described as follows: Mouse platelet activity assay, flow cytometry, γ-thrombin activation. Format: cell-based. The settings on record: mouse platelets, 316 nM γ-thrombin. On the procedure:
For mouse PAR4 activity, washed mouse platelets were prepared by collecting cardiac puncture blood with 200 μL of 20 U/mL heparin. Following centrifugation at 1000 rpm for 15 min, plasma and buffy coat were collected into a separate tube and spiked with apyrase and PGE1. After centrifuging at 1000 rpm for 8 min, the platelet-rich plasma was transferred to another tube and centrifuged at 2200 rpm for 10 min to pellet the platelets. Platelets were resuspended in TBB + apyrase + PGE1. Platelets were counted and diluted in TBB to a final concentration of 2 × 10^7 platelets/mL. 50 μL of platelets were aliquoted to each tube preincubated with 50 μL of TBB with antibodies for mouse GPIIbIIIa and P-selectin (Emfret, Eibelstadt Germany) and either test compound antagonist or DMSO control. Platelets were activated with 316 nM γ-thrombin for 30 min. Samples were then fixed with 100 μL of 2% paraformaldehyde for 20 min and diluted with 300 μL of PBS. Flow cytometry counts are measured as for human platelets on a three-laser BD LSRFortessa (Becton Dickinson) and analyzed with FloJo software.

The mark [1] stands for this setting: GPIIbIIIa activation (PAC1), read-out: Human Platelets PAC1 IC50.
The mark [2] stands for this setting: P-selectin (CD62p), read-out: Human Platelets P-Sel IC50.
The mark [3] stands for this setting: GPIIbIIIa (JonA), read-out: Mouse Platelets JonA IC50.
Where [4] appears, read: P-selectin, read-out: Mouse Platelets P-Sel IC50.

The term IC50 denotes the point on the concentration scale where inhibition reaches its midpoint. `N#Cc1ccc(-c2nc(NC(=O)c3nn(-c4ccccc4)c4c3CCCC4)n[nH]2)cc1` [Compound 30]: the IC50 at PAR4 (setting [1]) came out at 0.395 µM; on PAR4 (setting [2]), 0.496 µM; at mouse PAR4 (setting [3]) it was 1.84 µM; on mouse PAR4 (setting [4]), 1.42 µM.
As to `Cc1n[nH]c(NC(=O)c2nn(-c3ccc(F)cc3)c3c2CCC3)n1` [Compound 21], the IC50 was 3.25 µM on PAR4 (setting [1]) and 4.78 µM at PAR4 (setting [2]).
Consider `Cc1nc(NC(=O)c2cc(-c3ccccc3)[nH]n2)n[nH]1` [Compound 8], for which the IC50 at PAR4 (setting [1]) was determined as 2.79 µM; at PAR4 (setting [2]), 2.21 µM.
Take `O=C(Nc1n[nH]c(C2CC2)n1)c1nn(-c2ccccc2)c2c1CCCC2` [Compound 26]: the IC50 at PAR4 (setting [1]) amounted to 0.182 µM; on PAR4 (setting [2]), 0.228 µM; on mouse PAR4 (setting [3]) it was 0.354 µM; on mouse PAR4 (setting [4]), 0.351 µM.
The corresponding values for `O=C(Nc1n[nH]c(-c2ccccc2)n1)c1nn(-c2ccccc2)c2c1CCCC2` [Compound 29] are 0.45 µM, 0.603 µM, 1.11 µM and 1.16 µM.
As for `CC(C)c1cc(C(=O)Nc2n[nH]c(-c3c(F)cccc3F)n2)nn1C` [Compound 11], the IC50 on PAR4 (setting [1]) was 0.606 µM; at PAR4 (setting [2]), 0.847 µM; at mouse PAR4 (setting [3]) it was 1.09 µM; at mouse PAR4 (setting [4]), 1.63 µM.
`Cc1n[nH]c(NC(=O)c2nn(-c3cccc(F)c3)c3c2CCC3)n1` [Compound 19]: the half-inhibitory concentration (IC50) on PAR4 (setting [1]) came to 0.923 µM; at PAR4 (setting [2]), 1.39 µM; on mouse PAR4 (setting [3]), 1.19 µM; on mouse PAR4 (setting [4]), 1.14 µM.
Take `Cn1nc(C(=O)Nc2n[nH]c(-c3ccccc3Cl)n2)cc1C1CC1` [Compound 14]: the IC50 on PAR4 (setting [1]) turned out to be 0.835 µM; on PAR4 (setting [2]), 1.04 µM; at mouse PAR4 (setting [3]) it was 1.34 µM; at mouse PAR4 (setting [4]) it was 1.29 µM.
In the same order, the values of `Cn1nc(C(=O)Nc2n[nH]c(-c3ccccc3F)n2)cc1C1CC1` [Compound 13] are 0.593 µM, 0.63 µM, 0.715 µM and 0.699 µM.
Regarding `O=C(Nc1n[nH]c(C2CC2)n1)c1nn(-c2ccccc2)c2c1CCC2` [Compound 24], the IC50 at PAR4 (setting [1]) was 0.392 µM; on PAR4 (setting [2]), 0.523 µM; at mouse PAR4 (setting [3]), 0.958 µM; on mouse PAR4 (setting [4]) it was 1.13 µM.
For `O=C(Nc1n[nH]c(C2CC2)n1)c1nn(-c2cccc(F)c2)c2c1CCCC2` [Compound 28], the IC50 was determined as 0.254 µM at PAR4 (setting [1]), 0.28 µM at PAR4 (setting [2]), 0.981 µM on mouse PAR4 (setting [3]) and 0.793 µM at mouse PAR4 (setting [4]).
In the same order, the values of `Cn1nc(C(=O)Nc2n[nH]c(-c3ccc(C#N)cc3)n2)cc1C1CC1` [Compound 16] are 0.46 µM, 0.569 µM, 1.14 µM and 1.18 µM.
Take `O=C(Nc1n[nH]c(-c2cccc(C(F)(F)F)c2)n1)c1nn(-c2ccccc2)c2c1CCCC2` [Compound 27]: the IC50 was found to be 0.152 µM on PAR4 (setting [1]), 0.208 µM on PAR4 (setting [2]), 0.367 µM at mouse PAR4 (setting [3]) and 0.368 µM on mouse PAR4 (setting [4]).
As to `Cc1nc(NC(=O)c2cc(C(=O)OC(C)(C)C)n(-c3ccccc3)n2)n[nH]1` [Compound 10], the IC50 at PAR4 (setting [1]) was found to be 1.13 µM; at PAR4 (setting [2]), 1.16 µM; on mouse PAR4 (setting [3]), 11.3 µM; on mouse PAR4 (setting [4]), 6.16 µM.
Take `CCc1cc(C(=O)Nc2n[nH]c(-c3c(F)cccc3F)n2)nn1C` [Compound 15]: the half-inhibitory concentration (IC50) worked out at 0.495 µM at PAR4 (setting [1]), 0.58 µM on PAR4 (setting [2]), 0.672 µM at mouse PAR4 (setting [3]) and 0.807 µM at mouse PAR4 (setting [4]).
